Experimental findings from patent US20140163023A1, “DIHYDROPYRROLO PYRIMIDINE DERIVATIVES AS MTOR INHIBITORS” (Cellzome Limited, priority 2011, published 2014) are described below.

Structures can show the parent of a compound that is named as a salt. Some results are limits rather than exact numbers.

In general, IC50 refers to the concentration that inhibits the measured activity by half.

One experiment has as its target T1, mTOR (Homo sapiens, UniProt P42345).
T1 construct: endogenous in cells; host or cells: Jurkat (ATCC TIB-152, clone E6-1) and Ramos (ATCC CRL-1596), 1:1 lysate mix
In words: mTOR kinobeads assay (competition binding in cell lysate, dot blot detection). The conditions noted are these: 1:1 mix of Jurkat and Ramos cell lysates, read-out: Inhibition values (IC50 in μM) as determined in the kinobeads assay, mTor. The essentials:
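Competition binding in a 1:1 mix of Jurkat and Ramos cell lysates at 5 mg/ml total protein, with compounds in a 1:3 dilution series and an affinity matrix of two immobilized ligands, 2 h in the cold with shaking. mTOR captured on the beads was eluted and quantified by antibody dot blot with infrared detection. IC50 came from dose-response curves.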

For experiment [1], the target named is T2, DNA-dependent protein kinase (DNA-PK) (Homo sapiens, UniProt P78527).
T2 construct: endogenous in cells; host or cells: Jurkat (ATCC TIB-152, clone E6-1) and Ramos (ATCC CRL-1596), 1:1 lysate mix
Put plainly: kinobeads assay, DNA-PK. The class given is binding. The conditions noted are these: 1:1 mix of Jurkat and Ramos cell lysates, read-out: Inhibition values (IC50 in μM) as determined in the kinobeads assay, DNA-PK. A digest of the protocol: (§1)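 Inhibitor at serial dilutions (1:3, 9 steps) competed for binding to an affinity matrix of two immobilized ligands in a 1:1 Jurkat/Ramos lysate at 5 mg/ml protein, 2 h in a cold room. Bound kinases were eluted, quantified by antibody dot blot with infrared detection, and IC50 was taken from dose-response curves.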

For another experiment, the target named is T3, PI3Kα (Homo sapiens, UniProt P42336).
T3 construct: endogenous in cells; host or cells: Jurkat (ATCC TIB-152, clone E6-1) and Ramos (ATCC CRL-1596), 1:1 lysate mix
Put plainly: kinobeads assay, PI3Kα. The conditions noted are these: 1:1 mix of Jurkat and Ramos cell lysates, read-out: Inhibition values (IC50 in μM) as determined in the kinobeads assay, PI3Kα. The class given is binding. A digest of the protocol: as §1

The target of the next experiment is T4, PI3Kγ (Homo sapiens, UniProt P48736).
T4 construct: endogenous in cells; host or cells: Jurkat (ATCC TIB-152, clone E6-1) and Ramos (ATCC CRL-1596), 1:1 lysate mix
Put plainly: kinobeads assay, PI3Kγ. The conditions noted are these: 1:1 mix of Jurkat and Ramos cell lysates, read-out: Inhibition values (IC50 in μM) as determined in the kinobeads assay, PI3Kγ. The class given is binding. The essentials:
as §1

For another experiment, the target named is T5, PI3Kδ (Homo sapiens, UniProt O00329).
T5 construct: endogenous in cells; host or cells: Jurkat (ATCC TIB-152, clone E6-1) and Ramos (ATCC CRL-1596), 1:1 lysate mix
Put plainly: kinobeads assay, PI3Kδ. The format is binding. The conditions noted are these: 1:1 mix of Jurkat and Ramos cell lysates, read-out: Inhibition values (IC50 in μM) as determined in the kinobeads assay, PI3Kδ. The essentials: as §1

A further experiment has as its target T6, PI3Kβ (Homo sapiens, UniProt P42338).
T6 construct: endogenous in cells; host or cells: Jurkat (ATCC TIB-152, clone E6-1) and Ramos (ATCC CRL-1596), 1:1 lysate mix
In words: kinobeads assay, PI3Kβ. To be noted: 1:1 mix of Jurkat and Ramos cell lysates, read-out: Inhibition values (IC50 in μM) as determined in the kinobeads assay, PI3Kβ. The format is binding. The essentials: as §1

T6 sequence (P42338 whole entry): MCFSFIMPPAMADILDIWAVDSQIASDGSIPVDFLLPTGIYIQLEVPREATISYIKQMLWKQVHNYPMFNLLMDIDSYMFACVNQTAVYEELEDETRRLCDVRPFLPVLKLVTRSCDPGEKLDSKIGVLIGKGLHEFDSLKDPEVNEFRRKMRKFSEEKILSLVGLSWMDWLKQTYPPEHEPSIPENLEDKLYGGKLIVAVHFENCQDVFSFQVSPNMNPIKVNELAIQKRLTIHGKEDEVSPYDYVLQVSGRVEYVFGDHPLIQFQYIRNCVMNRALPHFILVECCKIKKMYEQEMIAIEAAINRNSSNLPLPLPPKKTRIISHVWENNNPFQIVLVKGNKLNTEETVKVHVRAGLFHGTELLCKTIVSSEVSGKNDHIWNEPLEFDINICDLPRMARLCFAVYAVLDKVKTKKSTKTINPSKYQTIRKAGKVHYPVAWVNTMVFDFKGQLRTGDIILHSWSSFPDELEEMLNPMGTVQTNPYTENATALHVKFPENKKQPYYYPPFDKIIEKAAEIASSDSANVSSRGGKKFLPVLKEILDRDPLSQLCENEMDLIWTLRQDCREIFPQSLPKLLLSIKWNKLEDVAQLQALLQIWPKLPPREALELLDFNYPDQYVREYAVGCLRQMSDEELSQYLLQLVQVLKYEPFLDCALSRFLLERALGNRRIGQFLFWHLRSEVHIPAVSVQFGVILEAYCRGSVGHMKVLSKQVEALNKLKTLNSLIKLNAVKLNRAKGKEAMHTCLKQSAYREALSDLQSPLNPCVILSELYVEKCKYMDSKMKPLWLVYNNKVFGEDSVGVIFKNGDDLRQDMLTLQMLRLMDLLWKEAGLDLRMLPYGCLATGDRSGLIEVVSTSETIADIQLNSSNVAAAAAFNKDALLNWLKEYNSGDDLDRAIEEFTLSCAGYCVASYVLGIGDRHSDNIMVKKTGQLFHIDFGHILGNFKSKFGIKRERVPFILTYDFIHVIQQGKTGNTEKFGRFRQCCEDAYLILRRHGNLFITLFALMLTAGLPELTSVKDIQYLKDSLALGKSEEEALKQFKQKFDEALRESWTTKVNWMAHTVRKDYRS
T6 sequence (P27986 whole entry partner): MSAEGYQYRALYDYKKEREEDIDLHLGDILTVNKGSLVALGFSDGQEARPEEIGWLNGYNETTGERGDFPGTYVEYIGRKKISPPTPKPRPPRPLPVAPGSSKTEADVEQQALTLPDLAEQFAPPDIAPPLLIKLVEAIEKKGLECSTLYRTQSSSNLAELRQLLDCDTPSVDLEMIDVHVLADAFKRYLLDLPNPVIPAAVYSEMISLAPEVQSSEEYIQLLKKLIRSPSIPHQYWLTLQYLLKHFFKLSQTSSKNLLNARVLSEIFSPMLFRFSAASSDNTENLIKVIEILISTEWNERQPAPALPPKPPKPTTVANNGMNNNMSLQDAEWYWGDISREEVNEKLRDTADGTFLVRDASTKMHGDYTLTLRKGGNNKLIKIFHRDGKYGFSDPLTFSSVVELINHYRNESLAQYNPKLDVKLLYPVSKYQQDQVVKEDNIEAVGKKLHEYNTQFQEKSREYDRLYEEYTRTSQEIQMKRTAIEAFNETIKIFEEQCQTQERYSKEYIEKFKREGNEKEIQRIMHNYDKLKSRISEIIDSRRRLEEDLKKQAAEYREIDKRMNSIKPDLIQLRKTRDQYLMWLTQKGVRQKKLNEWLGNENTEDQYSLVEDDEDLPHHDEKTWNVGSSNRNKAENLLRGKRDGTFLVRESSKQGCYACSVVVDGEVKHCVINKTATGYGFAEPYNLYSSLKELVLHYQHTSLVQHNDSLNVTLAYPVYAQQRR
T5 sequence (O00329 whole entry): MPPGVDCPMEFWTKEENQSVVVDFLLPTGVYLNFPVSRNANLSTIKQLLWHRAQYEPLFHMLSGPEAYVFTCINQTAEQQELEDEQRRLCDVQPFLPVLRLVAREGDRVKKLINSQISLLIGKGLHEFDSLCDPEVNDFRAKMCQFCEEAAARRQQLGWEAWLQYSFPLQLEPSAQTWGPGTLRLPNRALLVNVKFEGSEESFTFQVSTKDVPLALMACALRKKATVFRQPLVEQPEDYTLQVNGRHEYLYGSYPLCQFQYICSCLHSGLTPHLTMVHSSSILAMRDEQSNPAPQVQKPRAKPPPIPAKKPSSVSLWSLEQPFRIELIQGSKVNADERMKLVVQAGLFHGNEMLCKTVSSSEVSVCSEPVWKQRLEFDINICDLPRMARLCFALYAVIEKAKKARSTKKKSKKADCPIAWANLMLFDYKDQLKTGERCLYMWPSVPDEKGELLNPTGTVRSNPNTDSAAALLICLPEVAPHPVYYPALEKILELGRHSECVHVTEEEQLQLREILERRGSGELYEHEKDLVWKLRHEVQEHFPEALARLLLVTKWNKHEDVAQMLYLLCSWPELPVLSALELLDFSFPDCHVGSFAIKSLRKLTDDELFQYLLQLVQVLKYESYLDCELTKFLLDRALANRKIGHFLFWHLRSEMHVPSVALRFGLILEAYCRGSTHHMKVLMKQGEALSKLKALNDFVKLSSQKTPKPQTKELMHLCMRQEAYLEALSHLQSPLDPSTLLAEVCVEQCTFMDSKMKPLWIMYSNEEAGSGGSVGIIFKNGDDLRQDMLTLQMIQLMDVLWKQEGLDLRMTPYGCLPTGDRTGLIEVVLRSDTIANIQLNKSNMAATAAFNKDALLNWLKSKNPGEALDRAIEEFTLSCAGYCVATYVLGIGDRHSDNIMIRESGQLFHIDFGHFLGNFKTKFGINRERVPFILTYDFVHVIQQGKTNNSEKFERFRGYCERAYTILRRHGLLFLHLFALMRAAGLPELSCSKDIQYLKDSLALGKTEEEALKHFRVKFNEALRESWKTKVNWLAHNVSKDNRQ
T5 sequence (P27986 whole entry partner): as the sequence (P27986 whole entry partner) above
T3 sequence (P42336 whole entry): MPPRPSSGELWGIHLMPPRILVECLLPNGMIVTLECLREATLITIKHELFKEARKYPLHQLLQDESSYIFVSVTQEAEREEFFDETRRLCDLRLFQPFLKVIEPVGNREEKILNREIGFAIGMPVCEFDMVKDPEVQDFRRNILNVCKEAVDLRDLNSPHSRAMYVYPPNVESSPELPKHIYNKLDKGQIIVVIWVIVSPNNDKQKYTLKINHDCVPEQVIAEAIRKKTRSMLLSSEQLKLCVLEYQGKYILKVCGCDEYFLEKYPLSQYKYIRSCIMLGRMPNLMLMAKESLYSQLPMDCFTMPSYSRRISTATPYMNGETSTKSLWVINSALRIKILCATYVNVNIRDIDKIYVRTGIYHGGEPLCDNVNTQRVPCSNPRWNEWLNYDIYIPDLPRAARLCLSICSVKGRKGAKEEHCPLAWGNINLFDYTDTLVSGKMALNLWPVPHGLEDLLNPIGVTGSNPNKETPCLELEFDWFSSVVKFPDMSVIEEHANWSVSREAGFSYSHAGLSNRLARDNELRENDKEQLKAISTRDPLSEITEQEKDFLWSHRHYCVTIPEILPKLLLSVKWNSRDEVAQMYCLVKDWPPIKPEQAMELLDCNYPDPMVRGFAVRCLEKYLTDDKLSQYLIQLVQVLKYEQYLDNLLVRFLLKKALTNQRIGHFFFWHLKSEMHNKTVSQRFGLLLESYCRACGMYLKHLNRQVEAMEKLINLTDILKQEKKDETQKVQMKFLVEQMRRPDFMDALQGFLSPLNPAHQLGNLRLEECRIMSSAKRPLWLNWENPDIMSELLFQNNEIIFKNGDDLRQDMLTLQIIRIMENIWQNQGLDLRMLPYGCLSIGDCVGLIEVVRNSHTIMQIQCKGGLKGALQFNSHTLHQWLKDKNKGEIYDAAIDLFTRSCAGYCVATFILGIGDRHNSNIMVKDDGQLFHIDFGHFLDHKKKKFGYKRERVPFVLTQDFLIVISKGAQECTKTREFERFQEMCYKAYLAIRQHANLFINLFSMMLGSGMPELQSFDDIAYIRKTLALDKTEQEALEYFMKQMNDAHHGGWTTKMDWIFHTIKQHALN
T3 sequence (P27986 whole entry partner): as the sequence (P27986 whole entry partner) above
T4 sequence (P48736 whole entry): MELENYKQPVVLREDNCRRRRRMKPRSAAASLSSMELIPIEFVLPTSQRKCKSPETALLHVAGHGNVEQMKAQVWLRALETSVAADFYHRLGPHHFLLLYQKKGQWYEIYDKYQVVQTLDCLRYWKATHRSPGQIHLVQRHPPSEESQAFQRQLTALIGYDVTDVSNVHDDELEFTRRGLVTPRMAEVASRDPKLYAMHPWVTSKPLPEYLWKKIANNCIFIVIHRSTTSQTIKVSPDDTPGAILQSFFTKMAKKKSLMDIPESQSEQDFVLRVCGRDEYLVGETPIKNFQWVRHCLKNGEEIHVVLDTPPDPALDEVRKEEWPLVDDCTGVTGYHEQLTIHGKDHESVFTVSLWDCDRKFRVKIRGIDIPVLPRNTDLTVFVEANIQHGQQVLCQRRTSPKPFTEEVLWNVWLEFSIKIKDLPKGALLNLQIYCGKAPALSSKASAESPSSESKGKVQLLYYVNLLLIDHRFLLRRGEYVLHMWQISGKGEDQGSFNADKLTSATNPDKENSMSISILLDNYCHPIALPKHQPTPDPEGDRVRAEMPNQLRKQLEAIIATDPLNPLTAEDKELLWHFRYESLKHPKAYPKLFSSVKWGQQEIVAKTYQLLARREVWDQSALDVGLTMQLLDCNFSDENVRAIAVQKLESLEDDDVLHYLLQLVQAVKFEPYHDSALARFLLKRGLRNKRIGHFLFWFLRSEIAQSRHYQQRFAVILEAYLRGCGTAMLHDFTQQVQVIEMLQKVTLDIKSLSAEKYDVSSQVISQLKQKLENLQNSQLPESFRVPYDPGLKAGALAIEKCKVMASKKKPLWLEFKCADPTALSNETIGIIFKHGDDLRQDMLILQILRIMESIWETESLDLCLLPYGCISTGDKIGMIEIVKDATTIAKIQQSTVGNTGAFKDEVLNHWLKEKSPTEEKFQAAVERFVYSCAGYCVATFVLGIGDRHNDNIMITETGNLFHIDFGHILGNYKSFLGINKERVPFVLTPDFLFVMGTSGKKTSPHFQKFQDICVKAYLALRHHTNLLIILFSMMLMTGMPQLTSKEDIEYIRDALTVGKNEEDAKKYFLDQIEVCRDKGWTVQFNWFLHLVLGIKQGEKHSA

Take `C[C@H]1COCCN1c1nc2c(c(-c3ccc(NC(=O)NC4CC4)cc3)n1)CN(S(=O)(=O)C1CC1)C2` [Example 35, (S)-1-cyclopropyl-3-(4-(6-(cyclopropylsulfonyl)-2-(3-methylmorpholino)-6,7-dihydro-5H-pyrrolo[3,4-d]pyrimidin-4-yl)phenyl)urea]: the IC50 at mTOR was 1 to 10 µM; in experiment [1] it was greater than 100 µM; at PI3Kα it was greater than 100 µM; on PI3Kγ, greater than 100 µM; on PI3Kδ it was greater than 100 µM; on PI3Kβ, greater than 100 µM.

Take `C[C@H]1COCCN1c1nc2c(c(-c3ccc(NC(=O)NCCO)cc3)n1)CN(S(C)(=O)=O)C2` [Example 36, (S)-1-(2-hydroxyethyl)-3-(4-(2-(3-methylmorpholino)-6-(methylsulfonyl)-6,7-dihydro-5H-pyrrolo[3,4-d]pyrimidin-4-yl)phenyl)urea]: the IC50 on mTOR is 0.1 to 1 µM; in experiment [1], greater than 100 µM; at PI3Kα, 10 to 100 µM; on PI3Kγ, 1 to 10 µM; at PI3Kδ, 10 to 100 µM; at PI3Kβ it was 10 to 100 µM.

`CCNC(=O)N1Cc2nc(N3CCOC[C@@H]3C)nc(-c3ccc(NC(=O)NCCO)cc3)c2C1` [Example 37, (S)—N-ethyl-4-(4-(3-(2-hydroxyethyl)ureido)phenyl)-2-(3-methylmorpholino)-5H-pyrrolo[3,4-d]pyrimidine-6(7H)-carboxamide]: the IC50 on mTOR is 0.1 to 1 µM; in experiment [1], 10 to 100 µM; on PI3Kα it was 1 to 10 µM; at PI3Kγ it was 10 to 100 µM; on PI3Kδ, 10 to 100 µM; at PI3Kβ it was 10 to 100 µM.

On to `C[C@H]1COCCN1c1nc2c(c(-c3ccc(NC(=O)NCCO)cc3)n1)CN(C1CCCCC1)C2` [Example 38, (S)-1-(4-(6-cyclohexyl-2-(3-methylmorpholino)-6,7-dihydro-5H-pyrrolo[3,4-d]pyrimidin-4-yl)phenyl)-3-(2-hydroxyethyl)urea], for which the IC50 at mTOR was 1 to 10 µM; in experiment [1], greater than 100 µM; on PI3Kα, greater than 100 µM; on PI3Kγ, greater than 100 µM; at PI3Kδ it was greater than 100 µM; on PI3Kβ, greater than 100 µM.

With `CC(=O)N1Cc2nc(N3CCOC[C@@H]3C)nc(-c3ccc(NC(=O)NCCO)cc3)c2C1` [Example 39, (S)-1-(4-(6-acetyl-2-(3-methylmorpholino)-6,7-dihydro-5H-pyrrolo[3,4-d]pyrimidin-4-yl)phenyl)-3-(2-hydroxyethyl)urea], the IC50 at mTOR was 0.1 to 1 µM; in experiment [1], 10 to 100 µM; at PI3Kα, 10 to 100 µM; at PI3Kγ it was 10 to 100 µM; on PI3Kδ, 1 to 10 µM; on PI3Kβ, 10 to 100 µM.

In the case of `C[C@H]1COCCN1c1nc2c(c(-c3ccc(NC(=O)NC4CC4)cc3)n1)CN(C(=O)C1CCOC1)C2` (stereo partly drawn) [Example 40, 1-cyclopropyl-3-(4-(2-((S)-3-methylmorpholino)-6-(tetrahydrofuran-3-carbonyl)-6,7-dihydro-5H-pyrrolo[3,4-d]pyrimidin-4-yl)phenyl)urea 2,2,2-trifluoroacetate], the IC50 on mTOR is 1 to 10 µM; in experiment [1] it was greater than 100 µM; on PI3Kα it was 10 to 100 µM; on PI3Kγ, greater than 100 µM; at PI3Kδ, 10 to 100 µM; on PI3Kβ, 10 to 100 µM.

For `C[C@H]1COCCN1c1nc2c(c(-c3ccc(NC(=O)NC4CC4)cc3)n1)CN(C(=O)C1CCCN1)C2` (stereo partly drawn) [Example 41, 1-cyclopropyl-3-(4-(2-((S)-3-methylmorpholino)-6-(pyrrolidine-2-carbonyl)-6,7-dihydro-5H-pyrrolo[3,4-d]pyrimidin-4-yl)phenyl)urea hydrochloride], the IC50 on mTOR is 1 to 10 µM; in experiment [1], greater than 100 µM; on PI3Kα it was 10 to 100 µM; on PI3Kγ, 10 to 100 µM; on PI3Kδ it was 10 to 100 µM; on PI3Kβ, 10 to 100 µM.
